Where “and” joins values, the source holds several entries; their conditions need not be identical. Equal values may be shown once. Inconclusive results and toxic doses are left out. Rule as the data show it: active = T/C of 150% or more; inactive = T/C below 125%.
Tested on: L1210 leukemia ip in BDF1 mice, survival T/C
Assay: NCI In Vivo Anticancer Drug Screen. Data for tumor model L1210 Leukemia (intraperitoneal) in B6D2F1 (BDF1) mice
Conditions: endpoint: mean survival time, higher = longer survival
Outline: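 Mice bearing the transplanted tumor received compound or vehicle. Survival of the treated group was divided by that of the vehicle-treated control group to give the ratio.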

[1] = dose: 100.0 mg/kg/injection, schedule: Q04DX003 (ip), vehicle: gum acacia
[2] = dose: 200.0 mg/kg/injection, schedule: Q04DX003 (ip), vehicle: gum acacia
[3] = dose: 400.0 mg/kg/injection, schedule: Q04DX003 (ip), vehicle: gum acacia
[4] = dose: 100.0 mg/kg/injection, schedule: Q01DX001 (ip), vehicle: saline
[5] = dose: 100.0 mg/kg/injection, schedule: Q04DX003 (ip), vehicle: saline
[6] = dose: 200.0 mg/kg/injection, schedule: Q01DX001 (ip), vehicle: saline
[7] = dose: 200.0 mg/kg/injection, schedule: Q04DX003 (ip), vehicle: saline
[8] = dose: 400.0 mg/kg/injection, schedule: Q01DX001 (ip), vehicle: saline
[9] = dose: 400.0 mg/kg/injection, schedule: Q04DX003 (ip), vehicle: saline

Measured: T/C

[O-][N+](=Nc1ccc(Cl)cc1)c1ccc(Cl)cc1
inactive: dose: 100.0 mg/kg/injection, schedule: Q01DX001 (ip), vehicle: gum acacia 92 % of control | [1] 97 % of control | dose: 200.0 mg/kg/injection, schedule: Q01DX001 (ip), vehicle: gum acacia 93 % of control | [2] 87 % of control | dose: 400.0 mg/kg/injection, schedule: Q01DX001 (ip), vehicle: gum acacia 92 % of control | [3] 91 % of control

CCc1cccc(CC)c1NC(=O)c1ccccc1Cl
inactive: dose: 100.0 mg/kg/injection, schedule: Q04DX002 (ip), vehicle: Klucel (hydroxypropylcellulose) (HPC) 102 % of control | dose: 200.0 mg/kg/injection, schedule: Q04DX002 (ip), vehicle: Klucel (hydroxypropylcellulose) (HPC) 97 % of control | dose: 400.0 mg/kg/injection, schedule: Q04DX002 (ip), vehicle: Klucel (hydroxypropylcellulose) (HPC) 94 % of control

O=C(O)C1CCCC2C(O)CCC(O)C12 (stereo unspecified)
inactive: [4] 107 % of control | [5] 105 % of control | [6] 93 % of control | [7] 111 % of control | [8] 91 % of control | [9] 105 % of control

Cc1ccc(C(O)CCN2CCOCC2)c(C)c1 (stereo unspecified)
inactive: [4] 102 % of control | [6] 104 % of control

CCOc1nc(C)cc(C(=O)O)c1C#N
inactive: dose: 75.0 mg/kg/injection, schedule: Q01DX001 (ip), vehicle: other 95 % of control | dose: 150.0 mg/kg/injection, schedule: Q01DX001 (ip), vehicle: other 100 % of control | dose: 300.0 mg/kg/injection, schedule: Q01DX001 (ip), vehicle: other 103 % of control

CCCCCCCCCCCCCCCCCC[N+](C)(C)C (tested in a mixture with another compound)
inactive: dose: 0.2 mg/kg/injection, schedule: Q01DX015 (ip), vehicle: saline 104 % of control | dose: 0.5 mg/kg/injection, schedule: Q01DX015 (ip), vehicle: saline 98 % of control | dose: 1.0 mg/kg/injection, schedule: Q01DX009 (ip), vehicle: saline 108 % of control | dose: 1.0 mg/kg/injection, schedule: Q01DX015 (ip), vehicle: saline 104 % of control | dose: 2.0 mg/kg/injection, schedule: Q01DX009 (ip), vehicle: saline 100 % of control | dose: 2.0 mg/kg/injection, schedule: Q01DX015 (ip), vehicle: carboxymethylcellulose (CMC) 96 % of control | dose: 2.0 mg/kg/injection, schedule: Q01DX015 (ip), vehicle: saline 94 % of control and 103 % of control | dose: 3.0 mg/kg/injection, schedule: Q04DX003 (ip), vehicle: saline sonified 93 % of control | dose: 4.0 mg/kg/injection, schedule: Q01DX009 (ip), vehicle: saline 108 % of control | dose: 4.0 mg/kg/injection, schedule: Q01DX015 (ip), vehicle: carboxymethylcellulose (CMC) 93 % of control | dose: 4.0 mg/kg/injection, schedule: Q01DX015 (ip), vehicle: saline 96 % of control | dose: 5.0 mg/kg/injection, schedule: Q01DX015 (ip), vehicle: saline 103 % of control | dose: 6.0 mg/kg/injection, schedule: Q04DX003 (ip), vehicle: saline sonified 103 % of control | dose: 8.0 mg/kg/injection, schedule: Q01DX009 (ip), vehicle: saline 97 % of control | dose: 8.0 mg/kg/injection, schedule: Q01DX015 (ip), vehicle: saline 94 % of control | dose: 10.0 mg/kg/injection, schedule: Q01DX015 (ip), vehicle: saline 91 % of control | dose: 12.5 mg/kg/injection, schedule: Q01DX009 (ip), vehicle: saline 101 % of control | dose: 16.0 mg/kg/injection, schedule: Q04DX003 (ip), vehicle: saline 105 % of control | dose: 25.0 mg/kg/injection, schedule: Q01DX001 (ip), vehicle: saline 117 % of control | dose: 25.0 mg/kg/injection, schedule: Q01DX009 (ip), vehicle: saline 95 % of control | dose: 25.0 mg/kg/injection, schedule: Q04DX003 (ip), vehicle: saline 96 % of control | dose: 50.0 mg/kg/injection, schedule: Q04DX003 (ip), vehicle: saline 87 % of control

CCCCCCCCS.[Ni]
inactive: dose: 6.0 mg/kg/injection, schedule: Q01DX009 (ip), vehicle: Klucel (hydroxypropylcellulose) (HPC) 100 % of control | dose: 12.0 mg/kg/injection, schedule: Q01DX009 (ip), vehicle: Klucel (hydroxypropylcellulose) (HPC) 92 % of control | dose: 25.0 mg/kg/injection, schedule: Q01DX009 (ip), vehicle: Klucel (hydroxypropylcellulose) (HPC) 92 % of control | [5] 102 % of control

CCCCNC(=O)Nc1ccc(CC)cc1
inactive: dose: 100.0 mg/kg/injection, schedule: Q01DX009 (ip), vehicle: Klucel (hydroxypropylcellulose) (HPC) 98 % of control | dose: 100.0 mg/kg/injection, schedule: Q04DX003 (ip), vehicle: Klucel (hydroxypropylcellulose) (HPC) 97 % of control | dose: 200.0 mg/kg/injection, schedule: Q01DX009 (ip), vehicle: Klucel (hydroxypropylcellulose) (HPC) 102 % of control | dose: 200.0 mg/kg/injection, schedule: Q04DX003 (ip), vehicle: Klucel (hydroxypropylcellulose) (HPC) 102 % of control | dose: 400.0 mg/kg/injection, schedule: Q01DX009 (ip), vehicle: Klucel (hydroxypropylcellulose) (HPC) 96 % of control | dose: 400.0 mg/kg/injection, schedule: Q04DX003 (ip), vehicle: Klucel (hydroxypropylcellulose) (HPC) 100 % of control

O=C(OCCCCCCOC(=O)c1cccc([N+](=O)[O-])c1)c1cccc([N+](=O)[O-])c1
inactive: dose: 100.0 mg/kg/injection, schedule: Q01DX001 (ip), vehicle: other 93 % of control | dose: 200.0 mg/kg/injection, schedule: Q01DX001 (ip), vehicle: other 93 % of control | dose: 400.0 mg/kg/injection, schedule: Q01DX001 (ip), vehicle: other 101 % of control

CC(C)c1sc([S-])n[n+]1-c1ccccc1
inactive: [4] 104 % of control | [5] 101 % of control | [6] 101 % of control | [7] 95 % of control | [8] 91 % of control | [9] 101 % of control

COc1ccc(NC(=O)COc2cccc(Cl)c2)cc1S(=O)(=O)F
inactive: dose: 25.0 mg/kg/injection, schedule: Q04DX003 (ip), vehicle: gum acacia 98 % of control | dose: 50.0 mg/kg/injection, schedule: Q04DX003 (ip), vehicle: gum acacia 95 % of control | [1] 101 % of control | [2] 95 % of control | [3] 92 % of control
